This is an account of results in publication PMC5986654, “Combined HAT/EZH2 modulation leads to cancer-selective cell death” (Oncotarget, 2018).

pIC50: −log10 of the molar value.

In one series the target is HDAC1 (Homo sapiens, UniProt Q13547). Nature of the series: HDAC1 in vitro assay. Type of series: biochemical. The method, then:
(§1) The HDAC1 and SIRT1 assays were performed as described previously.

Series [1] in a line: Stability of MC2884 in cell culture medium (RP-HPLC). The class given is physicochemical. As to the method: The compound was dissolved in DMEM at 50 µM and its concentration was measured by RP-HPLC using a ONYX 50 × 2 mm ID C18 column operating at 600 µL/min. The gradient applied was from 1% solvent B to 70% solvent B in 10 minutes. Solvent A was water with added 0.1% trifluoroacetic acid (TFA) and solvent B was acetonitrile with added 0.1% TFA. The eluate was monitored using a diode array detector with wavelengths set between 200–320 nm. The compound was eluted at 11.1 min. Peak integration was carried out on the chromatogram extracted at […], which is one of the compound absorbance maxima. A calibration curve was built by injecting solutions of the compound in DMSO at concentrations ranging between 1.5 µM and 200 µM. After incubation in DMEM compound concentration was determined at time points ranging between 0 and 72 hrs. As shown, half of compound was degraded after 10 h. At 72 hrs it was fully degraded under these conditions.

The next series has as its target T1, CYP3A4 (Homo sapiens, UniProt P08684).
T1 construct: from tissue; host or cells: human liver microsomes
In words: Cytochrome P450 inhibition, CYP3A4. The class given is in vitro ADME. As to conditions: probe midazolam (2.5 µM), human liver microsomes, observed only at 25 μM. The method, then: (§2) This provided a dose of 2 mg free base material/kg when Cytochrome p450 inhibition (5 isoform iC50 administered iv in a 5 mL/kg dosing volume. determination) mouse terminal ip pK study ADME-Tox Cytochrome P450 inhibition of Compound MC2884 was given ip at a dose of 2 mg/kg MC2884 using human liver microsomes as an estimation to a group of 24 normally fed male CD1 mice in a 10 mL/ of in vitro metabolism. kg injection volume. Terminal blood samples (> 230 μL) MC2884 (0.1 μM–25 μM) was incubated with were taken under CO2 from groups of 3 mice at each of 8 human liver microsomes and NADPH in the presence time-points post dose (0.083, 0.25, 0.5, 1, 2, 4, 8 and 24 h) of a cytochrome P450 isoform-specific probe substrate. and placed into heparinized tubes. […]
(§3) All samples were stored at −20° C measuring the formation of a fluorescent metabolite. […]
(§4) Cyp2C19 inhibition (0.1 mg/mL) and NADPH (1 mM) in the presence of the probe substrate midazolam (2.5 μM) for 5 min at Six test compound samples at concentrations 37° C. […] For the CYP1A incubations, the reactions microsomes (0.5 mg/mL) and NADPH (1 mM) in the were terminated by methanol, and the formation of the presence of the probe substrate mephenytoin (25 μM) metabolite, resorufin, was monitored by fluorescence for 60 min at 37° C. […]
For orientation: Microsomes from liver hold many membrane-bound enzymes, among them those of drug oxidation.

A further series has as its target T2, CYP2D6 (Homo sapiens, UniProt P10635).
T2 construct: liver microsomes (0.5 mg/mL) and NADPH (1 mM) in; from tissue; host or cells: human liver microsomes
In words: Cytochrome P450 inhibition, CYP2D6. The conditions noted are these: human liver microsomes, probe dextromethorphan. The class given is in vitro ADME. The method, then:
as §2, §3, §4

Another series addresses T3, CYP2C9 (Homo sapiens, UniProt P11712).
T3 construct: from tissue; host or cells: human liver microsomes
In words: Cytochrome P450 inhibition, CYP2C9. The class given is in vitro ADME. The conditions noted are these: human liver microsomes, probe tolbutamide. The method, then: as §2, §3, §4

A further series has as its system MePR2B. Nature of the series: Cytotoxic effect on mesenchymal progenitor model MePR2B. As to conditions: immortalized non-cancer cells. Type of series: cell-based.
The target of the next series is p300 (Homo sapiens, UniProt Q09472). In words: HAT in vitro assay, 10-dose IC50, p300. The conditions noted are these: substrate Histone H3, 3 μM Acetyl-CoA; read-out: Compound IC50 p300. The class given is biochemical.
Sequence of p300 (Q09472 whole entry): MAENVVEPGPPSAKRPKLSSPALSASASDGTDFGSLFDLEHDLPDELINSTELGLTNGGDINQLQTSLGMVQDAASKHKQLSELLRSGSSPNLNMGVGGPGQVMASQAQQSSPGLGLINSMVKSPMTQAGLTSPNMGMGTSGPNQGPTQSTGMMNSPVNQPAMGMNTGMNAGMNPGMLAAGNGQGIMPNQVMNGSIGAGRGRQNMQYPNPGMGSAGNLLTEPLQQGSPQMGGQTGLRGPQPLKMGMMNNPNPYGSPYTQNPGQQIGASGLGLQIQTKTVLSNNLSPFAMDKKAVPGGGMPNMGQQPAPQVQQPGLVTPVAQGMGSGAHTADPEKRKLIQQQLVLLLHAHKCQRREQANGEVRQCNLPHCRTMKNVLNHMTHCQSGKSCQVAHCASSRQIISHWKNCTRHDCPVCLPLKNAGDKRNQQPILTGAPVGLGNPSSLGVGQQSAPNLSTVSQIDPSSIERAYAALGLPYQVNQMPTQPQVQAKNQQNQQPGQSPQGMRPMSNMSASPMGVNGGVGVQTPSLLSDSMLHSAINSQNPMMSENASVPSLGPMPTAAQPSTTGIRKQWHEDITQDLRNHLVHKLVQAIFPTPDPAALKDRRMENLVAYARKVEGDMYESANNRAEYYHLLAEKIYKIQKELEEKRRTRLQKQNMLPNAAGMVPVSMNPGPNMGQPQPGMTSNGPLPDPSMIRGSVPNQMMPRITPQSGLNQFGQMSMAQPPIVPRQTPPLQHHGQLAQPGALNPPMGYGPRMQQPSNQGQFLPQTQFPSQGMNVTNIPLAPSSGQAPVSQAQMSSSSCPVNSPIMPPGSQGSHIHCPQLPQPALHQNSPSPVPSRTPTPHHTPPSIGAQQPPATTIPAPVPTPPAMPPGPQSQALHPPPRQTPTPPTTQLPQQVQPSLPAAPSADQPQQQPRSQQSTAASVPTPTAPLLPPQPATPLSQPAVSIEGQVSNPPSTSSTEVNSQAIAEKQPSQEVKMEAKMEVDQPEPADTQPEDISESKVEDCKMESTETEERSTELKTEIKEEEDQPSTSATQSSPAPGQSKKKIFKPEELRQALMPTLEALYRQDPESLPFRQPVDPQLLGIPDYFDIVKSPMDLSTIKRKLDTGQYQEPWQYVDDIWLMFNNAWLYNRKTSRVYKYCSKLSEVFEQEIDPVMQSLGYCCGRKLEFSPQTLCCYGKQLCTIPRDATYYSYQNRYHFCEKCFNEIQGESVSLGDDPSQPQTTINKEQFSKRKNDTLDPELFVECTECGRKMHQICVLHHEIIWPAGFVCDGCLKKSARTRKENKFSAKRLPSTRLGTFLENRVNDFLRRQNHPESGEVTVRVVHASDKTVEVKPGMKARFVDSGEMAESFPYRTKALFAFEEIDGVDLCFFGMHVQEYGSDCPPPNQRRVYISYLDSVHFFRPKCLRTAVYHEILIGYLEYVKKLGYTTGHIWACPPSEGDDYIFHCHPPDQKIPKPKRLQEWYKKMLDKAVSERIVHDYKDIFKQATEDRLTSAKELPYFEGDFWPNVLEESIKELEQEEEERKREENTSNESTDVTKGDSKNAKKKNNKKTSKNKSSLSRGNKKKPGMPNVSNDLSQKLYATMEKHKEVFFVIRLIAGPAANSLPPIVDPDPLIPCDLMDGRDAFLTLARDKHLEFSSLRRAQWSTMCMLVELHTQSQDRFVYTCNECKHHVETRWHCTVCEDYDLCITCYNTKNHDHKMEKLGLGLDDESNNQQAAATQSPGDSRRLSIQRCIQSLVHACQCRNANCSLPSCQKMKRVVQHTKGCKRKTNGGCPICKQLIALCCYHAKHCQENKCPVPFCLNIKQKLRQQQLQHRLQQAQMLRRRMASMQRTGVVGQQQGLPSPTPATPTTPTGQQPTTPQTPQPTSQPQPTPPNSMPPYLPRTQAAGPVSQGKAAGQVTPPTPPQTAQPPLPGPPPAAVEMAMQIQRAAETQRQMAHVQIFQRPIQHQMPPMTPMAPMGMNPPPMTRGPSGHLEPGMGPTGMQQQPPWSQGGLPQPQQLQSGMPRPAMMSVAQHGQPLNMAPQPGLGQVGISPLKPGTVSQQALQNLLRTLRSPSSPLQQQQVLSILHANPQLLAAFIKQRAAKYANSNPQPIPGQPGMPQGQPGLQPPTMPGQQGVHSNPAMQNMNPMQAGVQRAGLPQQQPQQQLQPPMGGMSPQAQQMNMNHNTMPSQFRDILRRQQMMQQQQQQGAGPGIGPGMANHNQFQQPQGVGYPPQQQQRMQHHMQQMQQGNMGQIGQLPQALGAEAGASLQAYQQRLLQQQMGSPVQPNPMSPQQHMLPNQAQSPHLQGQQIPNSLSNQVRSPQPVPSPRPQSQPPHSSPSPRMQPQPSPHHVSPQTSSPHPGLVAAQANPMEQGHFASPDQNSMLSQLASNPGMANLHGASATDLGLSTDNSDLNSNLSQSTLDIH
In a further series the target is SIRT1 (Homo sapiens, UniProt Q96EB6). Nature of the series: SIRT1 in vitro assay. Type of series: biochemical. The method, then:
as §1

T3 sequence (P11712 whole entry): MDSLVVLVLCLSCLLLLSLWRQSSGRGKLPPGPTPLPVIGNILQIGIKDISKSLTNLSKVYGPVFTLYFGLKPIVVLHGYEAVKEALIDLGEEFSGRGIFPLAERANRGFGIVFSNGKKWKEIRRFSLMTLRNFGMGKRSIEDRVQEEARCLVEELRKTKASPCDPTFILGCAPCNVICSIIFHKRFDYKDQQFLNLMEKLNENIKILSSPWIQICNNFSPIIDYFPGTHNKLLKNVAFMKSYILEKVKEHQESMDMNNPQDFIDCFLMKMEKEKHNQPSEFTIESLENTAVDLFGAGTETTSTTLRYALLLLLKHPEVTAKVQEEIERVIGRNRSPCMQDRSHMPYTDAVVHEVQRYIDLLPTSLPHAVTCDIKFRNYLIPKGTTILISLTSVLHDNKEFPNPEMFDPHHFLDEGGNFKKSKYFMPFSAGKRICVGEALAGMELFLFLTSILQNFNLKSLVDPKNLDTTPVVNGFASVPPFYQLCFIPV
Sequence of SIRT1 (Q96EB6 whole entry): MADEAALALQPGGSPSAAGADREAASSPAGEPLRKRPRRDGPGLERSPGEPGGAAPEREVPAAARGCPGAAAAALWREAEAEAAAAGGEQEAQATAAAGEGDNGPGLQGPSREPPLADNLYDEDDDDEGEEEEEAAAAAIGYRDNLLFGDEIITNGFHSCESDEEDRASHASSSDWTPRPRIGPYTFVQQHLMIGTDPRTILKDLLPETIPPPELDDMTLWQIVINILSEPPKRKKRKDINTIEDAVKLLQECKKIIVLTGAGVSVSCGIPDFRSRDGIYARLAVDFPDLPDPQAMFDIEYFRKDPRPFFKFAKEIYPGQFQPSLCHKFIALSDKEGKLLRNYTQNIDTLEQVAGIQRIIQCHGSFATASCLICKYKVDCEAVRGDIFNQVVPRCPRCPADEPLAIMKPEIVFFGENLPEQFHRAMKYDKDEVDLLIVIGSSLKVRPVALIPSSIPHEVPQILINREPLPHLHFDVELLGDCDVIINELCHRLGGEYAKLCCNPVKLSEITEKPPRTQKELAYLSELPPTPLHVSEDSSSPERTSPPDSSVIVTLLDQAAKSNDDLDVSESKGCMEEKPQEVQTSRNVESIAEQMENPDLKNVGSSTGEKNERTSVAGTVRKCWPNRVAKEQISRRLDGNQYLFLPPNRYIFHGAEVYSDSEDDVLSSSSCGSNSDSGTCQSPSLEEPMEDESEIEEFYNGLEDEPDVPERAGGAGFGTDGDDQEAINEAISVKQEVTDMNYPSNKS
T1 sequence (P08684 whole entry): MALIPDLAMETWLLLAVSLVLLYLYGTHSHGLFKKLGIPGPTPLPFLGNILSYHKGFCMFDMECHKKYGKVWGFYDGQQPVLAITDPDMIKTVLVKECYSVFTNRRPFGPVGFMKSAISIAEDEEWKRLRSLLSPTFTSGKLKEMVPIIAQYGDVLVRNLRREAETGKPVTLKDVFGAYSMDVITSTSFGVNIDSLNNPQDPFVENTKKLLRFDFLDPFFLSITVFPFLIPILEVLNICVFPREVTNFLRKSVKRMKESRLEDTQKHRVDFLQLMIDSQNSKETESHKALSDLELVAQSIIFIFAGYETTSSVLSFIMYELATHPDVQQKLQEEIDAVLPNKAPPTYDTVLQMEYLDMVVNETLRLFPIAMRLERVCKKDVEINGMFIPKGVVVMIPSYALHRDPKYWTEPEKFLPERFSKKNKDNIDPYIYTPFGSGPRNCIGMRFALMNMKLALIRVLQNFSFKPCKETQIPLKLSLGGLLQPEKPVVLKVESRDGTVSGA
T2 sequence (P10635 whole entry): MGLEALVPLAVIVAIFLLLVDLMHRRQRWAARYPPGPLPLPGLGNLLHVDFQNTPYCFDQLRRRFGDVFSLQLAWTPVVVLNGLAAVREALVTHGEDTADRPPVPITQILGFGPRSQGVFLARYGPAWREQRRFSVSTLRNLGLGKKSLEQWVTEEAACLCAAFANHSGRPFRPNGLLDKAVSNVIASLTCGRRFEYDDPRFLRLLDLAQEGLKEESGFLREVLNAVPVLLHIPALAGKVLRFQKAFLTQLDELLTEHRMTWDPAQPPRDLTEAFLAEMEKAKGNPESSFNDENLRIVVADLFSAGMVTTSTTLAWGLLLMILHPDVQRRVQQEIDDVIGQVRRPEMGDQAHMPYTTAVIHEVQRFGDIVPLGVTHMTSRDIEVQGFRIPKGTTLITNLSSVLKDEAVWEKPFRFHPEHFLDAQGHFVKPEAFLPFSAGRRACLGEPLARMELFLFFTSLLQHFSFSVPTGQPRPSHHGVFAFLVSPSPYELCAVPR

Turning to `O=C1/C(=C/c2cccc(Br)c2)CN(Cc2ccccc2)C/C1=C\c1cccc(Br)c1` [MC2884], at HDAC1, the HDAC modulating action result is given as “no activity”. For the same compound, the half-life (usually how long it takes for the measured level to halve) at 50 µM in series [1] (DMEM cell culture medium, read-out: half-life in cell culture media (converted)) was 10 h. For the same compound, the “time for total degradation in cell culture media” value in series [1] (DMEM, 50 µM) worked out at 72 h. Further, the inhibition (as a rule, the percentage by which the read-out fell short of the control) at 5 min, 25 µM against CYP3A4 came out at 45%. Also, the pIC50 (commonly the IC50 on a negative log10 scale, so that one unit is a factor of ten) against CYP2D6 is < 4.60; at CYP2C9, < 4.60; on p300, 6.34. In the series on MePR2B, the “cytotoxic effect on MePR2B” value was “insensitive”. Moreover, the SirT modulating action result on SIRT1 was “no activity”.
